# Earlier results as cited in US8658200B2, “Flavoring of drug-containing chewing gums” (McNeil-PPC, Inc., priority 2005, dated 2014).
# System: adult
smiles,measurement,value
"CN1CCCC1c1cccnc1 (stereo not shown) [nicotine, 3-(1-methyl-2-pyrrolidinyl)-pyridine]",amount of nicotine able to kill an adult,Approximately 40 milligrams
